Assay results reported in patent US20070053941A1, “Vermin repellent” (priority 2003, published 2007).

How the values were obtained:
[1] = test system: moles; test: Field test: IMP vials buried in mole tunnels at a summer residence lawn (Example 1); type: in vivo, Talpa europaea
Method: Locality: A summer residence in Ängelholm in the south of Sweden.
Active substance: 100 μl 20% IMP in hexane in a sealed glass vial which was crushed at application in a mole tunnel.

[2] = test system: moles; test: Garden test: fenced-in 100 square meter zone treated with IMP versus untreated control area (Example 2); type: in vivo, Talpa europaea
From the text: In a garden with an area of 700 square meters with notable mole activity, a zone with an area of 100 square meters was fenced in and treated with IMP under very favourable conditions.

COc1nccnc1C(C)C [IMP, 2-isopropyl-3-methoxy-pyrazine]
Repelling effect on moles (comment on the observations) ([1]; Example 1, overall conclusion): has a repelling effect on moles
Observed effect: mole hills ([1]; January 2003, migration back after treatment in June): about 10 mole hills
Observed effect: new mole hills in direction from the vials ([1]; June 15, after 2 vials buried June 11 and 3 vials June 14 (100 μl 20% IMP in hexane each), about 20 mole hills at beginning of June): 4 new mole hills in direction
Observed effect: new mole hills ([1]; June 19, after 5 vials buried): 2 new mole hills
Behaviour of moles in the treated area ([2]; Example 2, overall conclusion): decidedly disturbed
Mole hills observed in the treated area ([2]; after 4 days, 10 from the start, untreated control area 10 as compared with 6 from the start): 21 mole hills
